US10589001B2, “Pharmaceutical formulation for use in spinal fusion” (Kuros Biosurgery AG, priority 2011, dated 2020)

Test system: Crossbred Suffolk Sheep
Test: Sheep transforaminal lumbar interbody fusion model
Assay type: in vivo
Experimental: As in example 1, PTH (i.e. TGplPTH1-34) was tested alone or with granular material. The same materials were used as in example 1, and the preparation of the product followed the same protocol as for example 1, but in this study the concentrations of TGplPTH1-34 ranged from 0.2 mg/mL to 0.7 mg/mL of the fibrin matrix. The treatment was placed only inside the interbody cage. No additional test material was placed around the cage, as in example 1.
A total of 28 Crossbred Suffolk Sheep (Castrated Weathers) with an average weight of 57 kg and age ranging from 3 to 6 years of age were chosen as experimental animals. The animals were divided into 7 groups. One group (the positive control group) was treated with autograft and the remaining groups were treated with a fibrin matrix with or without granular material, containing different concentrations of TGplPTH1-34. Groups were followed for 16 weeks, after which the animals were sacrificed. Animal care and use was conducted in accordance with federal regulations as outlined in the Animal Welfare Act. Surgery, perioperative care, housing, sanitation practices, husbandry, and veterinary care followed the recommendations of the NIH Guide for the Care and Use of Laboratory Animals (HHS, NIH Pub. No. 85-23, 1985). Animal care personnel were qualified, through training and experience, to perform required duties. […]

SMILES: CC[C@H](C)[C@H](NC(=O)[C@H](CCC(=O)O)NC(=O)[C@H](CO)NC(=O)[C@@H](NC(=O)[C@H](CO)NC(=O)[C@H](CCCNC(=N)N)NC(=O)[C@H](CC(N)=O)NC(=O)[C@H](CCCCN)NC(=O)[C@H](Cc1ccc(O)cc1)NC(=O)[C@H](CC(C)C)NC(=O)[C@@H]1CCCN1C(=O)[C@H](CO)NC(=O)[C@@H](NC(=O)[C@H](CCC(N)=O)NC(=O)[C@H](CCC(=O)O)NC(=O)[C@H](CCC(N)=O)NC(=O)[C@@H](N)CC(N)=O)C(C)C)C(C)C)C(=O)N[C@@H](CCC(N)=O)C(=O)N[C@@H](CC(C)C)C(=O)N[C@@H](CCSC)C(=O)N[C@@H](Cc1c[nH]cn1)C(=O)N[C@@H](CC(N)=O)C(=O)N[C@@H](CC(C)C)C(=O)NCC(=O)N[C@@H](CCCCN)C(=O)N[C@@H](Cc1c[nH]cn1)C(=O)N[C@@H](CC(C)C)C(=O)N[C@@H](CC(N)=O)C(=O)N[C@@H](CO)C(=O)N[C@@H](CCSC)C(=O)N[C@@H](CCC(=O)O)C(=O)N[C@@H](CCCNC(=N)N)C(=O)N[C@H](C(=O)N[C@@H](CCC(=O)O)C(=O)N[C@@H](Cc1c[nH]c2ccccc12)C(=O)N[C@@H](CC(C)C)C(=O)N[C@@H](CCCNC(=N)N)C(=O)N[C@@H](CCCCN)C(=O)N[C@@H](CCCCN)C(=O)N[C@@H](CC(C)C)C(=O)N[C@@H](CCC(N)=O)C(=O)N[C@@H](CC(=O)O)C(=O)N[C@H](C(=O)N[C@@H](Cc1c[nH]cn1)C(=O)N[C@@H](CC(N)=O)C(=O)N[C@@H](Cc1ccccc1)C(=O)O)C(C)C)C(C)C [TGplPTH1-34]
- toxicity during the treatment period (any of the doses (0.2-0.7 mg/mL) or formulations, 16 weeks): No toxicity was observed
- histopathologic review (in vivo): no signs of osseous pathology
